In ChEMBL document CHEMBL4145552, “Marine derived xyloketal derivatives exhibit anti-stress and anti-ageing effects through HSF pathway in Caenorhabditis elegans” (2018):
Activity calls are given as the source filed them. No cut-off for these calls is given here.

How the values were obtained:
Caenorhabditis elegans [1] = experiment: Protection against thermal stress in Caenorhabditis elegans N2 assessed as increase in mean survival time at 100 uM at 37 degC measured every 1 hr post treatment relative to control; format: functional
Caenorhabditis elegans [2] = experiment: Anti-ageing activity in Caenorhabditis elegans N2 assessed as increase in rate of health span in maximal lifespan at 300 uM; format: functional, organism-based
Caenorhabditis elegans [3] = experiment: Protection against amyloid beta aggregation-induced paralysis in Caenorhabditis elegans CL4176 harboring temperature-inducible human amyloid beta (3 to 42) transgene assessed as time delay in progression of paralysis at 26 degC after 36 hrs; format: functional
Caenorhabditis elegans [4] = experiment: Protection against thermal stress in Caenorhabditis elegans N2 assessed as increase in mean survival time at 300 uM at 37 degC measured every 1 hr post treatment relative to control; format: functional
Caenorhabditis elegans [5] = experiment: Anti-ageing activity in Caenorhabditis elegans PS3551 harboring HSF-1 mutant assessed as increase in life span by measuring mean survival time measured up to 20 days post treatment (reference value: 10.89 +/- 0.17 day); format: functional
Caenorhabditis elegans [6] = experiment: Anti-ageing activity in Caenorhabditis elegans N2 assessed as increase in rate of health span on bending in lifespan at 300 uM measured for 3 secs at 3 days time interval up to 16 days relative to control; format: functional
Caenorhabditis elegans [7] = experiment: In vivo activation of HSF-1 pathway in Caenorhabditis elegans N2 assessed as increase in HSP70 protein expression by Western blot analysis relative to control; format: functional
Caenorhabditis elegans [8] = experiment: Anti-ageing activity in Caenorhabditis elegans N2 assessed as increase in life span at 300 uM relative to control; format: functional
Caenorhabditis elegans [9] = experiment: Anti-ageing activity in Caenorhabditis elegans N2 assessed as increase in rate of health span on pumping in lifespan at 300 uM measured for 10 secs at 2 days time interval up to 21 days by dissecting microscopic method relative to control; format: functional
Caenorhabditis elegans [10] = experiment: Protection against thermal stress in Caenorhabditis elegans PS3551 harboring HSF-1 mutant assessed as mean survival time at 37 degC measured every 1 hr up to 8 hrs post treatment (reference value: 4.37 +/- 0.1 hrs); format: functional

Structure (SMILES) | Activity (Caenorhabditis elegans [1]) | also measured
C[C@H]1CO[C@]2(C)Oc3c(c(O)c(C(=O)Nc4ccc(F)cc4)c4c3C[C@@H]3[C@@H](C)CO[C@]3(C)O4)C[C@H]12 | Active | 
C[C@H]1CO[C@]2(C)Oc3c(c4c(c5c3C[C@@H]3[C@@H](C)CO[C@]3(C)O5)CN(c3ccc(O)cc3)CO4)C[C@H]12 | 15.38% | Activity (Caenorhabditis elegans [2]): Active; Time (Caenorhabditis elegans [3]): 2.8 h; Activity (Caenorhabditis elegans [4]): <=23.96%; MST (Caenorhabditis elegans [5]): 10.99 days; Activity (Caenorhabditis elegans [6]): <=22%; Activity (Caenorhabditis elegans [7]): 28%; Activity (Caenorhabditis elegans [8]): 11%; Activity (Caenorhabditis elegans [9]): 16%; MST (Caenorhabditis elegans [10]): 4.32 h
C[C@H]1CO[C@]2(C)Oc3cc(O)c4c(c3C[C@H]12)O[C@@]1(C)OC[C@H](C)[C@H]1C4 | Active | Activity (Caenorhabditis elegans [4]): Active
COC(=O)CNC(=O)c1c(O)c2c(c3c1O[C@@]1(C)OC[C@H](C)[C@H]1C3)O[C@@]1(C)OC[C@H](C)[C@H]1C2 | Active | Activity (Caenorhabditis elegans [4]): Active
COC(=O)C(Cc1cc2ccccc2[nH]1)NC(=O)c1c(O)c2c(c3c1O[C@@]1(C)OC[C@H](C)[C@H]1C3)O[C@@]1(C)OC[C@H](C)[C@H]1C2 (stereo not given in full) | Active | 
C[C@H]1CO[C@]2(C)Oc3cc(OC/C=C/c4ccccc4)c4c(c3C[C@H]12)O[C@@]1(C)OC[C@H](C)[C@H]1C4 | inactive | 
O=c1c(O)c(-c2ccc(O)c(O)c2)oc2cc(O)cc(O)c12 [QUERCETIN] | 8.81% | 
C[C@H]1CO[C@]2(C)Oc3c(c4c(c5c3C[C@@H]3[C@@H](C)CO[C@]3(C)O5)CN(c3ccc(F)cc3)CO4)C[C@H]12 | Active | 
C[C@H]1CO[C@]2(C)Oc3c(c4c(c5c3C[C@@H]3[C@@H](C)CO[C@]3(C)O5)CN(c3ccc(Cl)cc3)CO4)C[C@H]12 | Active | 
CCCCSC(=O)c1c(O)c2c(c3c1OC1OCCCC1C3)OC1OCCCC1C2 (stereo not given) | Active | 
CCCCOc1cc2c(c3c1C[C@@H]1[C@@H](C)CO[C@]1(C)O3)C[C@@H]1[C@@H](C)CO[C@]1(C)O2 | Active | Activity (Caenorhabditis elegans [4]): Active
COC(=O)c1c(O)c2c(c3c1OC1OCCCC1C3)OC1OCCCC1C2 (stereo not given) | Active | 
C[C@H]1CO[C@]2(C)Oc3c(c4c(c5c3C[C@@H]3[C@@H](C)CO[C@]3(C)O5)CN(c3ccc(Br)cc3)CO4)C[C@H]12 | Active | Activity (Caenorhabditis elegans [4]): Active
C[C@H]1CO[C@]2(C)Oc3c(c(O)c(C(=O)O)c4c3C[C@@H]3[C@@H](C)CO[C@]3(C)O4)C[C@H]12 | Active | 
C[C@H]1CO[C@]2(C)Oc3c(c4c(c5c3C[C@@H]3[C@@H](C)CO[C@]3(C)O5)CN(CCOCCO)CO4)C[C@H]12 | Active | 
COC1(C)CCc2c(cc(O)c3c2OC(C)(OC)CC3)O1 (stereo not given) | Active | 
CC1CC2Cc3c(cc(O)c4c3OC3(C)OC(C)CC3C4)OC2(C)O1 (stereo not given) | inactive | 
C[C@H]1CO[C@]2(C)Oc3c(c4c(c5c3C[C@@H]3[C@@H](C)CO[C@]3(C)O5)CN(c3ccc([N+](=O)[O-])cc3)CO4)C[C@H]12 | inactive | 
COc1ccc(NC(=O)c2c(O)c3c(c4c2O[C@@]2(C)OC[C@H](C)[C@H]2C4)O[C@@]2(C)OC[C@H](C)[C@H]2C3)cc1 | Active | 
COc1ccc(N2COc3c4c(c5c(c3C2)O[C@@]2(C)OC[C@H](C)[C@H]2C5)O[C@@]2(C)OC[C@H](C)[C@H]2C4)cc1 | Active | 
COC(=O)C(Cc1ccc(O)cc1)NC(=O)c1c(O)c2c(c3c1O[C@@]1(C)OC[C@H](C)[C@H]1C3)O[C@@]1(C)OC[C@H](C)[C@H]1C2 (stereo not given in full) | Active | Activity (Caenorhabditis elegans [4]): Active
COC(=O)c1c(O)c2c(c3c1O[C@@]1(C)OC[C@H](C)[C@H]1C3)O[C@@]1(C)OC[C@H](C)[C@H]1C2 | Active | Activity (Caenorhabditis elegans [4]): Active
C[C@H]1CO[C@]2(C)Oc3c(c4c(c5c3C[C@@H]3[C@@H](C)CO[C@]3(C)O5)CN(c3ccccc3)CO4)C[C@H]12 | inactive | 
C[C@H]1CO[C@]2(C)Oc3c(c(O)c(C(=O)NCCc4ccc(O)cc4)c4c3C[C@@H]3[C@@H](C)CO[C@]3(C)O4)C[C@H]12 | Active | 
C[C@H]1CO[C@]2(C)Oc3c(c4c(c5c3C[C@@H]3[C@@H](C)CO[C@]3(C)O5)CN(c3ccc(I)cc3)CO4)C[C@H]12 | Active | 
C[C@H]1CO[C@]2(C)Oc3c(c4c(c5c3C[C@@H]3[C@@H](C)CO[C@]3(C)O5)CN(c3ccc(C(=O)O)cc3)CO4)C[C@H]12 | Active | 
Oc1cc2c(c3c1CC1CCCOC1O3)CC1CCCOC1O2 (stereo not given) | Active | 
CCCCN1COc2c3c(c4c(c2C1)O[C@@]1(C)OC[C@H](C)[C@H]1C4)O[C@@]1(C)OC[C@H](C)[C@H]1C3 | Active | 
C[C@H]1CO[C@]2(C)Oc3c(c4c(c5c3C[C@@H]3[C@@H](C)CO[C@]3(C)O5)CN(C)CO4)C[C@H]12 | Active | 
CNC(=O)c1c(O)c2c(c3c1OC1OCCCC1C3)OC1OCCCC1C2 (stereo not given) | Active | 
